Measurements from patent US20250114464A1, “PRE-MRNA SLICE MODULATING PEPTIDE-CONJUGATED ANTISENSE THERAPEUTICS FOR THE TREATMENT OF DISEASES” (The Governors of the University of Alberta, priority 2022, published 2025).

Tests used:
[1] = tested on: dystrophin; details: in vitro; cited from earlier work
[2] = tested on: dystrophin; details: patients, after 180 weeks of treatment with 30 or 50 mg/kg/week; cited from earlier work
[3] = tested on: Taiwanese SMA mouse model (Smn^−/− SMN2^Tg/−); experiment: Neuromuscular junction (NMJ) staining at PD30; assay type: in vivo, mice; details: 40 mg/kg at PD0
Procedure: NMJ staining was carried out as previously described. Briefly, the quadricep and the intercostal muscle were fixed in 4% paraformaldehyde (PFA) for 2 hours. The muscles were washed quicky with PBS and blocked with 5% goat serum and 2% Triton-X in PBS for 1 hour at RT. This was followed by an overnight incubation at 4 with the primary mouse monoclonal antibodies anti-neurofilament 2H3 (1:100) and anti-synaptophysin (1:500) (DSHB, Iowa). Subsequently, the muscles were incubated in the dark with Alexafluor 488-goat anti-mouse IgG1 (1:1000) (Life Technologies) and Alexafluor 594-bungarotoxin (1:5000) (ThermoFisher Scientific). At least 300 NMJs were z-stacked and visualized for the analysis of denervation and cross-sectional area using a confocal microscope (Zeiss LSM 710) and Zeiss Zen software. The synaptic area was quantified using image J. All analyses were performed in a blinded fashion.

[4] = tested on: Taiwanese SMA mouse model (Smn^−/− SMN2^Tg/−); experiment: H and E muscle pathology (myofiber size, centrally nucleated fibers) in SMA mice; assay type: in vivo; details: 40 mg/kg at PD0
Description: Atrophic musculature is a classical characteristic feature of SMA with diminished skeletal muscle fiber size. To determine the treatment effects on muscle pathology, we assessed the physiology and architecture of the myofibers of two affected muscle groups− the quadriceps and intercostal muscles, as well as the sparingly affected diaphragm at PD7 and PD30 [79,80]. We quantified the cross-sectional area (CSA), the minimal feret's diameter and centrally nucleated fibers for at least 500 myofibers per muscle for each treatment using hematoxylin & eosin (H & E) staining at PD7 and PD30 (FIG. 12a, b, FIGS. 19 and 20).
7 μm cryosections of the quadricep muscle, diaphragm and intercostal muscle were stained with Meyer's H&E reagents (Electron Microscopy Reagents). For the centrally nucleated fibers and myofiber size, 500-800 were randomly selected per muscle per treatment. The cross-sectional area and minimal Feter's diameter were quantified using Image J. All H and E analyses were performed in a blinded fashion.

[5] = tested on: Taiwanese SMA mouse model (Smn^−/− SMN2^Tg/−); experiment: Whole-body plethysmographic recordings at PD7; assay type: in vivo, mice; details: 40 mg/kg at PD0
Procedure: Measurements were performed in whole body, cylindrical transparent plexiglass plethysmographs that had one inflow and two outflow ports for the continuous delivery of fresh room air and removal of expired carbon dioxide. The plethysmograph of volumes were 10 ml (inner diameter: 1.9 cm, length: 3.5 cm for P7 mice with body weight less than 2.5 g), 30 ml (inner diameter: 2.6 cm, length: 5.6 cm for P7 mice with body weight more than 2.5 g) and 80 ml (inner diameter: 3.8 cm, length: 7 cm for P30) for measures of respiratory parameters with a flow rate of 15, 45, 120 ml/min, respectively. The gas was mixed with gas mixer (GSM-3, CWE InC, USA), delivered from compressed pure oxygen and pure nitrogen cannisters, being monitored using 0-200 ml/min gas regulators (Porter Instrument Company, USA).
Hypoxic challenge (11% of oxygen for 5 min) was performed with continuous monitoring of plethysmographic recordings without physical handling of the animal by switching inflow gas from normoxia (21% of oxygen, balanced by nitrogen) to hypoxia (11% of oxygen, balanced by nitrogen). […] For P30, the plethysmograph was recorded at room temperature of around 22° C. Pressure changes were detected with a pressure transducer (model DP 103; Validyne, USA), signal conditioner (CD-15; Validyne), recorded with data acquisition software (Axoscope) via analog-digital board (Digidata 1322A). […]

[6] = tested on: Taiwanese SMA mouse model (Smn^−/− SMN2^Tg/−); experiment: Survival of severe SMA mice after subcutaneous injection at PD0; assay type: in vivo
Procedure: To examine whether DG9 peptide can increase the efficacy of PMO, DGS peptide was conjugated to an 18-mer PMO with a sequence identical to nusinersen. The DG9-conjugated PMO and unconjugated-PMO and 2′-O-methoxyethyl-RNA (MOE) were injected into SMA model mice.
Mice were subcutanteously injected with the AOs or saline (NT) administered at postnatal day 0 (PD0) at two different doses-40 mg/kg or 80 mg/kg. The survival was recorded until a humane endpoint was reached. For the 40 mg/kg doses, the median survival was 12 d (unconjugated-PMO), 15.5 d (MOE), and increased to 58 d for DG9-PMO treatment (FIG. 9a). The median survival incremented to 57 d (unconjugated-PMO), 121 d (DG9-PMO) and 64 d (MOE) for the higher dose of 80 mg/kg (FIG. 9a).
All animal experiments were conducted in University of Alberta and approved by the Animal Care and Use Committee, University of Alberta Research Ethics Office. SMA transgenic mice (JAX stock #005058 FVB.Cg-Tg(SMN2)2HungSmn1^tm1Hung/J (Smn^−/−; SMN2^Tg/Tg), also known as the Taiwanese mice) were purchased from Jackson Laboratory (Bar Harbor, ME, USA). Heterozygous mice for Smn1 (Smn1^+/−; SMN2^−/−) were crossed with mice homozygous for Smn1 Smn^−/−; SMN2^Tg/Tg to obtain the SMA mice (Smn^−/−; SMN2^Tg/−) or the heterozygous healthy control (Smn1^+/−; SMN2^Tg/−). The SMA mice display a severe overt phenotype similar to SMA type I patients. […]

[7] = tested on: Taiwanese SMA mouse model (Smn^−/− SMN2^Tg/−); experiment: Righting reflex test; assay type: in vivo; details: 40 mg/kg at PD0; mice that survived beyond PD12
Procedure: This spontaneous ability of the mice to right themselves up was tested from P2 until the weaning stage P20. The neonates were placed on their backs and the time taken to reposition and place all four paws on the ground was noted. The recording time was a maximum of 60 s. Each neonate underwent three trials, with a resting period of at least 10 minutes between trials. The data is expressed as the mean time to complete the righting reflex test ±SEM.

Ex51_Ac0: exon 51-skipping PMO, GTGTCACCAGAGTAACAGTCTGAGTAGGAG (all phosphorodiamidate morpholino (PMO); DG9 cell-penetrating peptide conjugated at 3' end in DG9-PMO)
effectiveness in restoring dystrophin production relative to eteplirsen [1]: up to 7 times

eteplirsen
dystrophin of normal levels [2]: 0.93%

unconjugated-PMO: Example 2: 18-mer PMO targeting ISS-N1 intron 7 (5′-TCACTTTCATAATGCTGG-3′), sequence identical to nusinersen (all phosphorodiamidate morpholino (PMO); unconjugated)
NMJ architecture [3]: smaller endplates and collapsed vesicles | full innervation of NMJs ([3]; quadriceps and intercostal muscles): 40-50% | quadriceps myofiber size ([4]; PD7): significantly smaller than those of DG9-PMO | myofiber size and percent of central nuclei ([4]; PD30, all three tissue types): significantly smaller myofibers and a higher percent of central nuclei compared to DG9-PMO | respiratory parameters (fR, VE, VT) ([5]; PD7, hypoxic environment (11% O2), relative to normoxia): slow, weak, and irregular breathing when compared to the Hets | respiratory phenotype ([5]; PD7, normoxic conditions (21% O2)): Half of the unconjugated-PMO mice (n=14) exhibited parameters as seen in NT mice | median survival ([6]; 40 mg/kg subcutaneous at PD0): 12 days | median survival ([6]; 80 mg/kg subcutaneous at PD0): 57 days | time to right themselves on their paws [7]: still took longer than DG9-PMO mice
